# From ChEMBL document CHEMBL1201862, “PubChem BioAssay data set” (2004)
# Active and inactive are the calls of the source.
# Columns and labels:
# [1] = A Cell Based Secondary Assay To Explore Cytotoxicity of Compounds that Sensitize Mycobacterium Tuberculosis to Beta-Lactam Antibiotics.; assay type: functional
# [2] = biological target: T1, Carboxy-terminal domain RNA polymerase II polypeptide A small phosphatase 1 (Homo sapiens, UniProt Q9GZU7); experiment: inhibitors of CTDSP1, concentration-response testing, biochemical assay, absorbance-based, actives from ultra-high-throughput screening (AID 540297); assay type: functional
# T1 sequence (Q9GZU7 whole entry): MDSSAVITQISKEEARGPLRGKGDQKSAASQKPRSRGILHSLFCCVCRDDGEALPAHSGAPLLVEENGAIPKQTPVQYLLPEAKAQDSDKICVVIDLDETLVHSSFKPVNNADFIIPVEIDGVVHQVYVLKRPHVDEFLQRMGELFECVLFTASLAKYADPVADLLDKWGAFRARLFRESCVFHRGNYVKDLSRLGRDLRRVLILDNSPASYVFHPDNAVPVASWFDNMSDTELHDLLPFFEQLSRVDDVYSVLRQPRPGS
# [3] = biological target: DNA dC->dU-editing enzyme APOBEC-3G (Homo sapiens, UniProt Q9HC16); assay type: functional;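 also: Dose-response counterscreen measuring inhibition of APOBEC3G DNA deaminase activity, run while confirming APOBEC3A inhibitors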
# [4] = biological target: DNA dC->dU-editing enzyme APOBEC-3A (Homo sapiens, UniProt P31941); experiment: Dose Response confirmation of small molecule APOBEC3A DNA Deaminase Inhibitors via a fluorescence-based single-stranded DNA deaminase assay. [Related pubchem assays (depositor defined):AID493011, AID493024]; assay type: functional
# [5] = Luminescence-based cell-based high throughput dose response assay to identify activators of the DAF-12 from the parasite S. stercoralis (ssDAF-12).; assay type: functional
# [6] = tested on: BJ; experiment: cytotoxicity toward BJ-TERT fibroblasts, dose response, cell-based, RAS-independent, luminescence (AID 1933); assay type: functional; settings: Homo sapiens
# [7] = tested on: BJ; experiment: cells; assay type: functional, cell-based; settings: Homo sapiens
# [8] = cytotoxicity toward DRD oncogenic fibroblasts, dose response, cell-based, non-viral oncogenic, luminescence (AID 1934); assay type: functional; settings: Homo sapiens
# [9] = biological target: T2, Calpain-2 catalytic subunit (Sus scrofa, UniProt P43367); experiment: pig calpain II inhibitor potency, dose response, biochemical, fluorogenic peptide substrate (AID 1420); assay type: functional
# T2 sequence (P43367 whole entry): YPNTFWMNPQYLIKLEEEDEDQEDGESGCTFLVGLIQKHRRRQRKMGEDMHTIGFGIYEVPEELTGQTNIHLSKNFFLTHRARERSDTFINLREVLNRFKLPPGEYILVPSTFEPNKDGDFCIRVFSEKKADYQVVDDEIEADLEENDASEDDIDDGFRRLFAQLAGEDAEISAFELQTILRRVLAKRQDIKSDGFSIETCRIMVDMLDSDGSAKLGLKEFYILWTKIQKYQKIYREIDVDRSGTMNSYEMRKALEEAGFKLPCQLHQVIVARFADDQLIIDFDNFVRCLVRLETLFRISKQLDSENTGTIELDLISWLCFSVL
# [10] = tested on: BJ; experiment: cytotoxicity toward BJ-TERT-LT-ST fibroblasts, dose response, cell-based, RAS-independent, luminescence (AID 1935); assay type: functional; settings: Homo sapiens;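 also: BJ fibroblasts immortalized with TERT plus LT and ST oncogenes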
# [11] = growth suppression of PTEN-null colon cells, dose response, cell-based, HCT116 PTEN knockout (AID 1047); assay type: functional;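 also: HCT116 colon tumor cells with PTEN knocked out; cells exposed to compound for 60 hours before readout; potency for loss of cell viability measured by luminescence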
# [12] = growth suppression of beta-catenin-knockout colon cells, dose response, cell-based, HCT116, human colon tumor (AID 1045); assay type: functional;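 also: HCT116 colon tumor cells with beta catenin knocked out; cells exposed to compound for 60 hours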
# [13] = biological target: T3, Replicative DNA helicase DnaB (Mycobacterium tuberculosis, UniProt P9WMR3); experiment: DnaB intein splicing inhibitors, dose response, biochemical, cell-free fluorescence (AID 449749); assay type: functional
# T3 sequence (P9WMR3 whole entry): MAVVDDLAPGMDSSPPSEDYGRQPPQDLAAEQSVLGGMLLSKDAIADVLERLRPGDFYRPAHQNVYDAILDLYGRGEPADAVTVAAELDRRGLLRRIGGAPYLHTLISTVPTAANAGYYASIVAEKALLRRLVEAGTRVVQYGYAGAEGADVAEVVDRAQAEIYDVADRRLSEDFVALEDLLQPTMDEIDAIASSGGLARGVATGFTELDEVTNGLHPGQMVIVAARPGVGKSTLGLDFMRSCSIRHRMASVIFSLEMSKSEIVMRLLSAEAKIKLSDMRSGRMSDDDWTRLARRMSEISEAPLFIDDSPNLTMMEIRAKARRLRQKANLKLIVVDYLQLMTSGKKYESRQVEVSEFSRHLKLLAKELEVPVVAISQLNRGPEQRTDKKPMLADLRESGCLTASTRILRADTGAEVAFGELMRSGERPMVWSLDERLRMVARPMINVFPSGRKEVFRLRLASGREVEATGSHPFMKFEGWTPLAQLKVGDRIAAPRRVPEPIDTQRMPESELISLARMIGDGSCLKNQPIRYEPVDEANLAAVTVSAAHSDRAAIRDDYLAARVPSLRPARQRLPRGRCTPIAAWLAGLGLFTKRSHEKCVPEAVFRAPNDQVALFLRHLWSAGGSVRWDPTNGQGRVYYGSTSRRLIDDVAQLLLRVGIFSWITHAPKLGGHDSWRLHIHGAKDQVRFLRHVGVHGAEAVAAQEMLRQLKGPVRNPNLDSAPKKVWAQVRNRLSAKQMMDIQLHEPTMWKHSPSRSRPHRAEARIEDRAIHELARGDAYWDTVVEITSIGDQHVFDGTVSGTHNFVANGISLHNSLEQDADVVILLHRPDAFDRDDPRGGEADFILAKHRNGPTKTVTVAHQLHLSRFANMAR
# [14] = biological target: T4, Protein RecA (Mycobacterium tuberculosis, UniProt P9WHJ3); experiment: Fluorescence Cell-Free Homogeneous Dose Retest to Identify Inhibitors of RecA-Intein Splicing Activity. [Related pubchem assays (depositor defined):AID2097, AID2223, AID489010, AID492950]; assay type: functional
# T4 sequence (P9WHJ3 whole entry): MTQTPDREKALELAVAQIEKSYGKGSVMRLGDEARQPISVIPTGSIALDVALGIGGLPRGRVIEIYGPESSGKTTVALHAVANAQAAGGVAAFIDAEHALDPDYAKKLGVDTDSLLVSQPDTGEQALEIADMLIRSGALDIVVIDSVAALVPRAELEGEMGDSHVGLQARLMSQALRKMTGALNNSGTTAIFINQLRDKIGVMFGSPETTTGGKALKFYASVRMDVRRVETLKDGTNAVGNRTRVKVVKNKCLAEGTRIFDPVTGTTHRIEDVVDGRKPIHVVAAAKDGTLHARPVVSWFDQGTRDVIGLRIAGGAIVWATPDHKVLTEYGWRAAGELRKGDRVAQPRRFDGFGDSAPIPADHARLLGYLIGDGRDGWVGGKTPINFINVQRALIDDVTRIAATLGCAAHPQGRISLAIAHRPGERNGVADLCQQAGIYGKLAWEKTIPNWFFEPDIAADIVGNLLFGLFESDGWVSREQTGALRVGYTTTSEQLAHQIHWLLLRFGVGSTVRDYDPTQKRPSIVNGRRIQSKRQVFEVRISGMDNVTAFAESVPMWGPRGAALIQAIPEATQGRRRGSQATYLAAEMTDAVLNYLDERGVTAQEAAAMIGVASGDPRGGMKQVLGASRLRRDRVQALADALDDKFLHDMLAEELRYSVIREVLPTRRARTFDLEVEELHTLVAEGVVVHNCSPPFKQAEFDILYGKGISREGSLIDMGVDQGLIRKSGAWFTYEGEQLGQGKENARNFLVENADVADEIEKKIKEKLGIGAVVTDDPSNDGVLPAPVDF
# [15] = Luminescence Cell-Based Dose Retest to Confirm Inhibitors of Cancer Stem Cells. [Related pubchem assays (depositor defined):AID2717, AID2721]; assay type: functional; settings: Homo sapiens
# [16] = tested on: Streptococcus; experiment: Group A Streptococcus viability loss, dose response, counter-screen for streptokinase expression inhibitor project, luminescence, BacTiterGlo (AID 1915); assay type: functional, organism-based;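 also: potency for reduction of bacterial viability or growth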
# [17] = tested on: Streptococcus sp. 'group A'; experiment: growth inhibition of control SK(-) GAS strain, dose response, counter-screen for streptokinase expression inhibitor project, luminescence, kanamycin, BacTiterGlo, confirmation (AID 1900); assay type: functional, organism-based
# [18] = biological target: T5, Streptokinase A (Streptococcus pyogenes serotype M1, UniProt P10520); experiment: S. pyogenes streptokinase expression inhibitors, potency, dose response, plasminogen activation absorbance, OD405 (AID 1914); assay type: functional, Streptococcus pyogenes M1 GAS;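 also: secreted streptokinase activity via plasminogen activation per viability signal from cell pellet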
# T5 sequence (P10520 whole entry): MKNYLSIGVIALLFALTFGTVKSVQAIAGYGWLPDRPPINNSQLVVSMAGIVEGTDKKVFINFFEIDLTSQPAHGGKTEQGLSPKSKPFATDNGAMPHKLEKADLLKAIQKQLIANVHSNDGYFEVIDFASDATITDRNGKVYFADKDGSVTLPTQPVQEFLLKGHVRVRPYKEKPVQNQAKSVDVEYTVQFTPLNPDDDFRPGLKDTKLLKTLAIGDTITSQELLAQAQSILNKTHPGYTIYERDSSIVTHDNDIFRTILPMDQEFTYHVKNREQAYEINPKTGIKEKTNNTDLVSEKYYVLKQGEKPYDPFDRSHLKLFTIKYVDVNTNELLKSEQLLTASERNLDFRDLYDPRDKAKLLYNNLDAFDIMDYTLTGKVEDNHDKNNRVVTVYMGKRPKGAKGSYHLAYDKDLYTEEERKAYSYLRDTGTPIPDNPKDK
# [19] = biological target: T6, DNA repair and recombination protein RAD54-like (Homo sapiens, UniProt Q92698); experiment: inhibitors of human RAD54 branch migration, confirmation, biochemical, fluorescence, cherry-picked samples, dose series (AID 651657); assay type: functional
# T6 sequence (Q92698 whole entry): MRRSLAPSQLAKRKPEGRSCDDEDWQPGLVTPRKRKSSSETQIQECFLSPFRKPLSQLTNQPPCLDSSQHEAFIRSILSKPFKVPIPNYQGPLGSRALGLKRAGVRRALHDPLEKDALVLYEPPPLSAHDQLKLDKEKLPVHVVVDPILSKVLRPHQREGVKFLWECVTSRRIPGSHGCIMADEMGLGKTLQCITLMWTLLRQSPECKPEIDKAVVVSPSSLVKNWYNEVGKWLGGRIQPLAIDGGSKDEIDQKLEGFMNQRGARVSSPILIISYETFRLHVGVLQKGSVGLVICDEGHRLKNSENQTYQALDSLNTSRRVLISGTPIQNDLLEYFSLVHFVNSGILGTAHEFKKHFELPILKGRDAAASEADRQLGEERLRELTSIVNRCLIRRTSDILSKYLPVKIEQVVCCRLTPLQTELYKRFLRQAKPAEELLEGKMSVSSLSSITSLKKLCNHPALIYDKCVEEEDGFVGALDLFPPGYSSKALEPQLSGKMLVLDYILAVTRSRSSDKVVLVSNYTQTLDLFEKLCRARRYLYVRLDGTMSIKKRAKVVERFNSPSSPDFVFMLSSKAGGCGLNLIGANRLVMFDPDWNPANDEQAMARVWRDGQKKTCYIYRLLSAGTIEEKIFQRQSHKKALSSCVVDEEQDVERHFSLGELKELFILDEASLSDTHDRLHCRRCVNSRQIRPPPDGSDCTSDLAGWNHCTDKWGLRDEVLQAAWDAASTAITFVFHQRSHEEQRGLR
# [20] = biological target: T7, DNA repair protein RAD52 homolog (Homo sapiens, UniProt P43351); assay type: functional, biochemical
# T7 sequence (P43351 whole entry): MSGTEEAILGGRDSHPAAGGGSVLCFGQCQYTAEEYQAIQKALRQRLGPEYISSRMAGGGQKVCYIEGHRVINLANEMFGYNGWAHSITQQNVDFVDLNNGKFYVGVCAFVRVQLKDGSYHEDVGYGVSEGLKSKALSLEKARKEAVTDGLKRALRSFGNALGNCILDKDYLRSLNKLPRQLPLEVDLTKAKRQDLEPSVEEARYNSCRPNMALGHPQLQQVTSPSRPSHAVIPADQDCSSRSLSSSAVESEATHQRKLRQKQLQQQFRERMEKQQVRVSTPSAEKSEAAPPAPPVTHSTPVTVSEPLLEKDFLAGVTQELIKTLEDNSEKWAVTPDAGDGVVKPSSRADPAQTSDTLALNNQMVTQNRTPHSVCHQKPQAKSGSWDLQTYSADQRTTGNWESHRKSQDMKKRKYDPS
# Chain of DNA dC->dU-editing enzyme APOBEC-3G (Q9HC16 whole entry): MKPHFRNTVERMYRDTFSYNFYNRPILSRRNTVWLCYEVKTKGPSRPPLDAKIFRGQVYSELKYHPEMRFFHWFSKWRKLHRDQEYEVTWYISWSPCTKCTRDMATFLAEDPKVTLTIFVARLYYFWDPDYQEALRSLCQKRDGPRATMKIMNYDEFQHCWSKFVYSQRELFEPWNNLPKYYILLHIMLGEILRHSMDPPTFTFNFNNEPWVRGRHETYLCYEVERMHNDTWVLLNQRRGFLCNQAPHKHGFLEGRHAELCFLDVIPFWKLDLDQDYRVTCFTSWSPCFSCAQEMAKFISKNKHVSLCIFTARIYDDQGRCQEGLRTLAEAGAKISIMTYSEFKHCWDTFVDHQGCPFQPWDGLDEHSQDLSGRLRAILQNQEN
# Chain of DNA dC->dU-editing enzyme APOBEC-3A (P31941 whole entry): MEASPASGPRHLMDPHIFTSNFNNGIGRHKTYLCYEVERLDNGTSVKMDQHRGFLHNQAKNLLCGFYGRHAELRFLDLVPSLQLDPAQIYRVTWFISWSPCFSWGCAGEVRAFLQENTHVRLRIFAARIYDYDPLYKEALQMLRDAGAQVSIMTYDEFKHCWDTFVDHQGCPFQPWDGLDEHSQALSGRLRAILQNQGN
structure (smiles),measurement,setting,value
COc1c(F)c(F)c(C(=O)Nc2c(C)cc(Br)cc2C)c(F)c1F,CC50,[1],35.6 µM (active)
O=C(CSc1nc2sccc2c(=O)[nH]1)N1CCN(c2ccccc2)CC1,IC50,[2],10.7 µM (active)
same,IC50,[3],9.27 µM (active)
same,IC50,[4],11.5 µM (active)
Cc1ccsc1/C=N/Nc1nc2ccccc2s1,IC50,[5],> 67.6 µM (inactive)
CCN1C(=O)/C(=C\c2cn(-c3ccccc3)nc2-c2cccnc2)SC1=S,EC50,[6],7.41 µM (inconclusive)
same,EC50,[7],> 150 µM (not active)
same,EC50,[8],17.9 µM (active)
same,IC50,[9],> 50 µM (not active)
same,EC50,[10],> 150 µM (inconclusive)
CCN(CC)c1ccc(N/C=C2\C(=O)NC(=O)N(c3ccc(Cl)cc3)C2=O)cc1,CC50,[1],> 40 µM (active)
CCc1noc(C)c1C(=O)Nc1cc(S(=O)(=O)N2CCOCC2)ccc1N1CCN(CC)CC1,IC50,[3],5.53 µM (active)
same,IC50,[4],3.46 µM (active)
Cc1ccc(OCc2nnc(S)n2C2CCCCC2)cc1,IC50,[9],38.6 µM (not active)
COc1ccc(/C=C2\N=C(SC)N(c3ccccc3OC)C2=O)cc1,CC50,[1],37 µM (active)
COc1ccc(C(=O)C23CC4CC(C2)CC(C(=O)c2ccc(OC)cc2)(C4)C3)cc1,IC50,[9],< 0.4 µM (not active)
O=S(=O)(Cc1ccccc1)c1cnc2ccccc2n1,EC50,[11],14.1 µM (active)
same,EC50,[12],12.2 µM (active)
same,CC50,[1],34 µM (active)
same,AC50,[13],> 380 µM (inactive)
same,EC50,[14],18.3 µM (active)
C=C(C)C1Cc2c(C)nn(-c3cccc4ccccc34)c2C1 (stereo not drawn),AC50,[15],6.69 µM (active)
same,EC50,[16],> 150 µM (not active)
same,CC50,[1],> 40 µM (active)
same,EC50,[17],7.08 µM (active)
same,EC50,[18],16.8 µM (active)
COc1cccc(-c2cc(NC=O)c3ncc(-c4cccc(C(=O)NCCN(C)C)c4)n3c2)c1,AC50,[19],22.3 µM (active)
same,AC50,[20],3.43 µM (active)
COc1ccc(N2C(=O)N(Cc3ccc(C)cc3)c3ccccc3S2(=O)=O)cc1,IC50,[9],18.5 µM (not active)
Cc1cccn2c(=O)c3cc(C(=O)NC4CCCC4)c(=N)n(CCCN4CCOCC4)c3nc12,AC50,[19],21.5 µM (active)
same,AC50,[20],9.37 µM (active)
COc1ccc(NC(=O)COc2ccc(/C=C/c3cc[n+](C)cc3)cc2OC)cc1,IC50,[3],3.92 µM (active)
same,IC50,[4],3.69 µM (active)
